{
  "source": "patent US20240181049A1",
  "about": "“HARNESSING THE POWER OF MICROBIOTA AND METABOLITES FOR THE TREATMENT OF CANCER” (UTI LIMITED PARTNERSHIP, priority 2019, published 2024)",
  "key": {"naïve CD4^+ T cells": {"system": "naïve CD4^+ T cells", "assay": "Naive CD4+ T cells with anti-CD3/anti-CD28 coated beads", "format": "cell-based, mice", "description": "FIG. 4A-4K: Effect of inosine on T cell differentiation and dependency on classical dendritic cells of ICB therapy efficacy. (a) Scatter plot of untargeted metabolomics data in the serum of anti-CTLA-4 treated, tumor-bearing B.p. monocolonized compared to C.sp. monocolonized and germ-free (GF) mice. Grey circles or dotted grey circles depict inosine or inosine fragments/adducts, respectively. […] (c) Naïve CD4^+ T cells were co-cultured with bone marrow derived dendritic cells and IFN-γ. Quantification of T-bet^+CD3ε^+CD4^+ T cells 48 hours after co-culture in the presence or absence of inosine, A2A receptor inhibitor (ZM241385), cell permeable cAMP (db-cAMP) and protein kinase A inhibitor (RP-8-CPT-CAMPS). (d) Same as (c) without IFN-γ. (e) Representative plot and quantification (left and right panel) of phospho-CREB (Ser133) levels in naïve CD4^+ T cells cultured with anti-CD3/anti-CD28 coated beads for 1 hour in the presence or absence of inosine. (f) Schematic overview of experimental setup to deplete classical dendritic cells during MC38 tumor challenge and anti-CTLA-4 treatment. Intratumoral (g) frequency of CD8^+ T cells (h) IFN-γ^+CD8^+ T cells. (i and j) same as (g and h), but CD4^+ T cells and (k) tumor weight at […]. Data are mean±SEM and pooled from two individual experiments (a-b) n=5-8 samples/group (c-e) 10-15 biological replicates/group (f-k) 10 mice/group. *, P<0.05; **, P<0.01; ***, P<0.001; ****, P<0.0001\nFIG. 16A-16J: Context dependent effect of inosine on Th1 T cell differentiation. (a) Naïve CD4^+ T cells were co-cultured with bone marrow derived dendritic cells without IFN-γ. Quantification of T-bet^+CD3e^+CD4^+ T cells 48 hours after co-culture in the presence or absence of inosine and anti-CTLA-4, as indicated. (b) Naïve CD4^+ T cells were cultured anti-CD3/anti-CD28 coated beads at a ratio of 1:1 without IFN-γ for 48 hours. Representative plot and quantification of IL12Rβ2 surface expression on CD4^+ T cells in the presence or absence of inosine (left and right panel). (c) Quantification of T-bet^+CD3e^+CD4^+ T cells 48 hours after co-culture in the presence or absence of inosine, db-cAMP and anti-CTLA-4 as indicated. (d) Naïve, A2AR-deficient CD4^+ T cells were cultured with anti-CD3/anti-CD28 coated beads at a ratio of 1:1 without IFN-γ. Quantification of T-bet^+CD3e^+CD4^+ T cells 48 hours after co-culture in the presence or absence of inosine or db-cAMP (e) Representative plot and quantification (left and right panel) of pCREB expression of anti-CD3/anti-CD28 bead co-cultured CD4^+ T cells in the presence or absence of inosine or db-cAMP 1 hour after stimulation. Analysis through flow cytometry. (f and g) Naïve, wild type CD4^+ T cells were cultured with anti-CD3/anti-CD28 coated beads at a ratio of 1:1. Il12rb2 and Ifng gene transcripts (normalized to Gapdh) were evaluated 24 and 48 hours following inosine (1 mM) stimulation. Expression was normalized to cells treated with medium. Analysis through quantitative PCR assay (h) Naïve CD4^+ T cells were cultured with anti-CD3/anti-CD28 coated beads at a ratio of 1:1 without IFN-γ for 24 hours. Then inosine or vehicle was added at the indicated concentrations for another 48 hours before T cell differentiation and activation was assessed. (i) Adenosine concentrations in the duodenal-, jejunal- or cecal content of B.p. monocolonized mice and in the serum of B.p. or C.sp. monocolonized anti-CTLA-4 treated mice. (j) Naïve CD4^+ T cells were cultured with anti-CD3/anti-CD28 coated beads at a ratio of 1:1 without IFN-γ for 24 hours. Adenosine or was added then in the indicated concentrations for another 48 hours followed by T cell differentiation and activation was assessed through flow cytometry. […]"}, "MC38": {"system": "MC38", "assay": "MC38 tumors in gnotobiotic Oligo-MM12 mice, inosine + anti-CTLA-4", "format": "in vivo", "experimental": "FIG. 35A-35H. Inosine and live B. pseudolongum improve anti-CTLA-4 therapy efficacy in moderately diverse and complex microbiomes. A) Schematic overview of experimental setup to assess the effect of inosine on anti-tumor immunity in gnotobiotic mice (Oligo-MM12) stably colonized with 12 bacterial species. Upon palpable tumors, Oligo-MM12 colonized mice were treated with 100 μg anti-CTLA-4 i.p. or Isotype antibody (5 times every 72 hours). In addition, inosine (300 mg/KG/BW) or PBS was given daily orally through gavage. (B) Pictures of tumors and (C) tumor weight are shown at day 20. scale bars: 1 cm. (D) Quantification of intratumoral IFN-γ+ cells amongst CD8+ or CD4+ T cells are shown. (E) Schematic overview of experimental setup to assess the effect of inosine and B. pseudolongum on anti-tumor immunity in SPF mice. Following MC38 injection some mice received antibiotics (ABX), specifically Ampicillin 1 mg/ml, Colistin 1 mg/ml and Streptomycin 5 mg/ml for 7 days in the drinking water. Upon palpable tumors, antibiotics were removed and 100 μg anti-CTLA-4 (5 times every 72 hours) started. Mice concomitantly received either PBS, inosine (300 mg/KG/BW daily), B. pseudolongum or heat inactivated (H.i.) B. pseudolongum orally through gavage (5 times every 72 hours). (F) Pictures of tumors and (G) tumor weight are shown at day 20. scale bars: 1 cm. (H) Quantification of intratumoral IFN-γ+ cells amongst CD8+ or CD4+ cells are shown. Data are mean+/−SEM and (A-H) n=7 mice/group. P<0.05; **, P<0.01, ***, P<0.001."}},
  "data": [
    {"smiles": "OC[C@H]1O[C@@H](n2cnc3c(O)ncnc32)[C@H](O)[C@@H]1O", "note": "[inosine]", "values": [
      {"measurement": "phosphorylation of CREB (Ser133)", "setting": "naïve CD4^+ T cells; 1 hour", "value": "led to phosphorylation"},
      {"measurement": "Th1 differentiation", "setting": "naïve CD4^+ T cells; bead-activated naïve T cells, no DCs", "value": "enhanced Th1 differentiation, even in the absence of IFN-γ"},
      {"measurement": "Il12rb2 and Ifng gene transcription", "setting": "naïve CD4^+ T cells; inosine 1 mM, 24 and 48 hours, quantitative PCR", "value": "sustained upregulation"},
      {"measurement": "Th1 activation, inosine dose response", "setting": "naïve CD4^+ T cells; physiological concentrations observed in sera of B.p. but not C.sp. monocolonized mice", "value": "sufficient to induce Th1 activation"},
      {"measurement": "IL12Rβ2 surface expression", "setting": "naïve CD4^+ T cells; without IFN-γ, 48 hours", "value": "upregulation of IL12Rβ2"},
      {"measurement": "intra-tumoral IFN-γ+CD8+ and IFN-γ+CD4+ T cells", "setting": "MC38", "value": "increased"},
      {"measurement": "tumor size", "setting": "MC38", "value": "reduced tumor size"},
      {"measurement": "anti-tumor effects of anti-CTLA-4", "setting": "MC38; inosine 300 mg/KG/BW daily orally", "value": "able to promote the anti-tumor effects of anti-CTLA-4"}
    ]}
  ]
}
